From patent US8912202B2, “N-(benzimimdazol-2-yl)-cyclopropane carboxamides as lysophosphatidic acid antagonists” (Merck Patent GmbH, priority 2011, dated 2014)

Biological target: T1, LPA2R (Homo sapiens, UniProt Q9HBW0)
T1 construct: expressed in transfected cells; host or cells: U2OS
Assay: LPA2R-Calciumflux assay (FLIPR, intracellular calcium mobilisation after LPA)
Type: cell-based
Details: U2OS cells recombinant expressing LPA2R; antagonism of LPA-induced calcium flux; racemate of the two trans enantiomers unless marked enantiomer
From the text: The assay detects intra cellular calcium which is generated by cells upon activation of the LPA2 receptor by its ligand LPA. This transient calcium mobilization can be monitored using a commercial calcium detection kit (e.g. from Molecular Devices). The main component of such a kit is a dye, which becomes fluorescent when calcium is present—a transient fluorescence signal after addition of a ligand to a test well are the result. Readers like the FLIPR (Molecular Devices) can be used to monitor such transient “Ca-flux” signals.
The signals are calculated according to peak maximum minus base line.
Compounds which are antagonists of LPA lead to a decreased mobilisation of intracellular calcium and thus to a lower signal. The assay is performed in microplates (384 wells per plate).
LPA2R-Calciumflux Assay Protocol
The assay is run according to the following procedure:
50 uL seed cells (10000 cells/well in DMEM buffer)
• Incubate 24 h at 37° C., 10% CO2 • aspirate medium 50 uL add calcium dye 1×HBSS/HEPES buffer • incubate 1 h at 37° C. (“loading”) • equilibrate 10 min at RT 5 uL add compounds in HEPES buffer • shake 10 sec. at 1000 rpm • incubate 15 min at RT 20 uL add LPA (in the FLIPR Tetra) in Krebs-buffer/BSA & measurement
The cells are seeded in DMEM buffer (DMEM, 10% FCS, 10 mM HEPES, 1% Pen/Strep).
Dye loading is done in HBSS/HEPES buffer (100 mL 10×HBSS+20 mL 1M HEPES+880 mL water, pH 7.4)
The LPA is added in Krebs/BSA buffer (120 mM NaCl, 5 mM KCl, 0.62 mM MgSO4, 1.8 mM CaCl2, 10 mM HEPES, 6 mM D(+)-Glucose, 0.2% BSA, pH 7.4).
The compounds are pre-diluted in HEPES buffer (20 mM, pH 7.4), whereby the final DMSO content in the assay is kept at 1%. The compounds are pre-diluted in order to generate dose response series on the microplates. The dose response series consist of 10 concentrations for each compound from 30 uM final to 1 nM final. From all compound wells the resulting signals are referred to control wells (located on each plate besides the compound wells) in terms of % activity.
From these % activity values—along with the corresponding compound concentrations—IC50 values are fitted for each compound using standard fitting programs such as Graphpad Prism. Here the method “log(inhibitor) vs. response—Variable slope” is used.

T1 sequence (Q9HBW0 whole entry): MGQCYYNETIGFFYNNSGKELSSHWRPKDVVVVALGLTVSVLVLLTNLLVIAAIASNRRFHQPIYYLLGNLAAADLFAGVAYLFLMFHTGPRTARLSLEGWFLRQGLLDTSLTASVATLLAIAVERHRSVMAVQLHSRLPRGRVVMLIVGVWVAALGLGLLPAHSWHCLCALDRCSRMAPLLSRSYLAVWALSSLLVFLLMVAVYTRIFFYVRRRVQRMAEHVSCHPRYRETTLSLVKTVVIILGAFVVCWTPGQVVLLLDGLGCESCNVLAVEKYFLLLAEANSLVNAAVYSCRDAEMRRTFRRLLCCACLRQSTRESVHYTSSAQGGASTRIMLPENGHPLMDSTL

IC50	Compound
10 to 100 nM	COc1ccc2[nH]c(NC(=O)C3CC3c3ccccc3)nc2c1 (racemic) [2-Phenyl-cyclopropane-carboxylic acid (5-methoxy-1H-benzoimidazol-2-yl)-amide]
100 to 1000 nM	O=C(Nc1nc2ccccc2[nH]1)C1CC1c1cccc(Cl)c1 (racemic) [2-(3-Chloro-phenyl)-cyclopropane-carboxylic acid (1H-benzoimidazol-2-yl)-amide]
100 to 1000 nM	O=C(Nc1nc2ccccc2[nH]1)C1CC1c1ccccc1F (racemic) [2-(2-Fluoro-phenyl)-cyclopropane-carboxylic acid (1H-benzoimidazol-2-yl)-amide]
10 to 100 nM	O=C(Nc1nc2ccccc2[nH]1)C1CC1c1ccccc1Cl (single isomer, unassigned) [enantiomer-2-(2-Chloro-phenyl)-cyclopropane-carboxylic acid (1H-benzoimidazol-2-yl)-amide]
10 to 100 nM	O=C(Nc1nc2ccccc2[nH]1)C1CC1c1cccc([N+](=O)[O-])c1 (racemic) [2-(3-Nitro-phenyl)-cyclopropane-carboxylic acid (1H-benzoimidazol-2-yl)-amide]
10 to 100 nM	O=C(Nc1nc2cc(C(F)(F)F)ccc2[nH]1)C1CC1c1ccccc1 (racemic) [2-Phenyl-cyclopropane-carboxylic acid (6-trifluoromethyl-1H-benzoimidazol-2-yl)-amide]
> 10000 nM	COc1cccc(C2CC2C(=O)Nc2nc3ccccc3[nH]2)c1 (racemic) [2-(3-Methoxy-phenyl)-cyclopropane-carboxylic acid (1H-benzoimidazol-2-yl)-amide]
100 to 1000 nM	CN(C)c1ccccc1C1CC1C(=O)Nc1nc2ccccc2[nH]1 (racemic) [2-(2-Dimethylamino-phenyl)-cyclopropane-carboxylic acid (1H-benzoimidazol-2-yl)-amide]
1000 to 10000 nM	COc1ccc(C2CC2C(=O)Nc2nc3ccccc3[nH]2)cc1 (racemic) [2-(4-Methoxy-phenyl)-cyclopropane-carboxylic acid (1H-benzoimidazol-2-yl)-amide]
10 to 100 nM	N#Cc1ccc2nc(NC(=O)C3CC3c3ccccc3)[nH]c2c1 (racemic) [2-Phenyl-cyclopropane-carboxylic acid (5-cyano-1H-benzoimidazol-2-yl)-amide]
> 10000 nM	O=C(Nc1nc2ccccc2[nH]1)C1CC1c1ccc(Cl)cc1 (racemic) [2-(4-Chloro-phenyl)-cyclopropane-carboxylic acid (1H-benzoimidazol-2-yl)-amide]
1000 to 10000 nM	N#Cc1ccc2nc(NC(=O)C3CC3c3ccccc3)[nH]c2c1 (single isomer, unassigned; enantiomer-2) [drawing 72, enantiomer-2-Phenyl-cyclopropane-carboxylic acid (6-cyano-1H-benzoimidazol-2-yl)-amide]
> 10000 nM	O=C(O)c1ccc2[nH]c(NC(=O)C3CC3c3ccccc3)nc2c1 (racemic) [2-[(2-Phenyl-cyclopropane-carbonyl)-amino]-1H-benzoimidazole-5-carboxylic acid]
> 10000 nM	O=C(Nc1nc2ccccc2[nH]1)C1CC1c1ccccc1Cl (single isomer, unassigned; enantiomer-2) [drawing 76, enantiomer-2-(2-Chloro-phenyl)-cyclopropane-carboxylic acid (1H-benzoimidazol-2-yl)-amide]
10 to 100 nM	O=C(Nc1nc2ccccc2[nH]1)C1CC1c1cccc(Br)c1 (racemic) [2-(3-Bromo-phenyl)-cyclopropane-carboxylic acid (1H-benzoimidazol-2-yl)-amide]

The next lines start with the compound.

Compound	IC50
O=C(Nc1nc2cc(Cl)cnc2[nH]1)C1CC1c1cccc(F)c1 (racemic) [2-(3-Fluoro-phenyl)-cyclopropane-carboxylic acid (6-chloro-3H-imidazo[4,5-b]pyridin-2-yl)-amide]	< 10 nM
O=C(Nc1nc2cncnc2[nH]1)C1CC1c1ccccc1 (racemic) [2-Phenyl-cyclopropane-carboxylic acid (9H-purin-8-yl)-amide]	1000 to 10000 nM
O=C(Nc1nc2cc(Br)cnc2[nH]1)[C@H]1C[C@@H]1c1ccccc1 [(1S,2S)-2-Phenyl-cyclopropanecarboxylic acid (6-bromo-3H-imidazo[4,5-b]pyridin-2-yl)-amide]	10 to 100 nM
O=C(OCc1ccccc1)C1CCN(CNc2cccc3[nH]c(NC(=O)C4CC4c4ccccc4)nc23)C1 (racemic) [1-({2-[(2-Phenyl-cyclopropane-carbonyl)-amino]-1H-benzoimidazol-4-ylamino)-methyl)-pyrrolidine-3-carboxylic acid benzyl ester]	1000 to 10000 nM
O=C(Nc1nc2c(NCC3CCN(Cc4ccccc4)CC3)cccc2[nH]1)C1CC1c1ccccc1 (racemic) [2-Phenyl-cyclopropane-carboxylic acid {4-[(1-benzyl-piperidin-4-ylmethyl)-amino]-1H-benzoimidazol-2-yl}-amide]	1000 to 10000 nM
N#Cc1ccc2nc(NC(=O)C3CC3c3ccccc3Cl)[nH]c2c1 (racemic) [2-(2-Chloro-phenyl)-cyclopropane-carboxylic acid (6-cyano-1H-benzoimidazol-2-yl)-amide]	10 to 100 nM
O=C(Nc1nc2ccc(Cl)cc2[nH]1)C1C(c2ccccc2)C1(F)F (racemic) [2,2-Difluoro-3-phenyl-cyclopropane-carboxylic acid (6-chloro-1H-benzoimidazol-2-yl)-amide]	10 to 100 nM
O=C(Nc1nc2ccccc2[nH]1)C1C(c2ccccc2)C1(F)F (racemic) [2,2-Difluoro-3-phenyl-cyclopropane-carboxylic acid (1H-benzoimidazol-2-yl)-amide]	100 to 1000 nM
CC1(C)C(C(=O)Nc2nc3ccc(C(F)(F)F)cc3[nH]2)C1c1ccccc1 (racemic) [2,2-Dimethyl-3-phenyl-cyclopropane-carboxylic acid (6-trifluoromethyl-1H-benzoimidazol-2-yl)-amide]	> 10000 nM
O=C(Nc1nc2cccnc2[nH]1)C1CC1c1ccccc1 (racemic) [2-Phenyl-cyclopropane-carboxylic acid (3H-imidazo[4,5-b]pyridin-2-yl)-amide]	10 to 100 nM
CN(C(=O)C1CC1c1ccccc1)c1nc2ccccc2[nH]1 (racemic) [2-Phenyl-cyclopropane-carboxylic acid (1H-benzoimidazol-2-yl)-methyl-amide]	1000 to 10000 nM
N#Cc1ccc2nc(NC(=O)C3C(c4ccccc4)C3(F)F)[nH]c2c1 (racemic) [2,2-Difluoro-3-phenyl-cyclopropane-carboxylic acid (6-cyano-1H-benzoimidazol-2-yl)-amide]	100 to 1000 nM
